# Laboratory results published in paper PMC9228811, “Identification and Characterization of a Potential Antimicrobial Peptide Isolated from Soil Brevibacillus sp. WUL10 and Its Activity against MRSA Pathogens” (Tropical Medicine and Infectious Disease, 2022).
# Where two headings read alike, the source gives them in different places. No end group written: not given here.
# Tests used:
# [1] = tested on: S. aureus TISTR 517; assay: microbe, parasite or virus in culture; type: cell-based, Staphylococcus aureus
# Protocol: (§1) Determination of MIC by broth microdilution was followed the Clinical and Laboratory Standard Institute (CLSI) guidelines. Cation-adjusted Mueller–Hinton broth (CAMHB) was used as a diluent. The purified substance (100 μL) was prepared by making the 2-fold dilution in the range of 0.125–32 μg/mL, and an aliquot (10 μL) of diluted suspension of the indicator strains (5 × 10^5 CFU/mL) was added into each well. Indicator strains without sample were a positive control, while CAMHB alone was the negative control. The 96-well plates were incubated at 37 °C for 24 h and measured the bacterial growth. […] MBC was determined by further spreading 10 µL of sample in each well on MH agar and incubated at 37 °C overnight.
# (§2) The peptide sequence of the purified substance of WUL10 was analyzed by the Q-Exactive HF LC-MS/MS Orbitrap system. Briefly, the protonated peptides were first desalted on-line on a reverse-phase C18 PepMap 100 trapping column before being resolved onto a C18 PepMap 100 capillary column with a 70 min gradient of 0.1% HCO2H/H2O (mobile phase (MP): A) and 0.1% HCO2H/CH3CN (MP: B) at a flow rate of 300 nL/min. Peptides were analyzed by applying a data-dependent Top5 acquisition mode followed by a higher-energy collisional dissociation (HCD) at collision energy of 28. Full-scan (MS) mass spectra were acquired from m/z 400 to 2000 with an AGC target set at 3 × 10^6 ions and a resolution of 120,000. MS/MS scan was initiated when the ACG target reached 2 × 10^5 ions and a resolution of 30,000. The raw LC-MS file from LC-MS/MS was imported to PeakX studio 10.0 (Bioinformatics Solutions Inc., Waterloo, CA, USA). The peptide ion intensity with +2 to +5 charge states was automated de novo peptide sequenced with default parameters with minor modifications. Briefly, mass error tolerance for MS and MS/MS were 15 ppm and 0.1 Da, respectively. HCD-fragmentation series on b- and y-ion series were used to predict the peptide sequence. The confidence score was set at the high level of confidence to obtain a reliable set of high-precision peptides. The acceptable de novo peptide sequences were achieved by filtering average local confidence (ALC) to ≥50%. The acceptable peptide sequences with an average local confidence (ALC) threshold of ≥50% were submitted to the antimicrobial peptide scanner to analyze the probability of antimicrobial peptides. A number of resulting peptides (18 synthetic peptides) were synthesized by Kelowna International Scientific Inc. (Taipei City, Taiwan) with purity of more than 85%, and they were prepared in a 2-fold dilution with CAMHB before examining the antimicrobial activity by broth microdilution. MIC and MBC were measured from 3 independent replicates.
# [2] = tested on: MRSA isolate 2468; assay: Agar well diffusion assay; type: cell-based, Staphylococcus aureus; settings: mean ± SD, n = 3
# Protocol: (§3) WUL10 colony was inoculated in 50 mL of half formula of Luria-Bertani (half LB) broth (Titan Biotech Ltd., Rajasthan, India), and incubated at 30 °C, 150 rpm overnight. The culture was adjusted the turbidity equivalent to 0.5 McFarland standard by 0.85% NaCl, and then, 2 mL of this preculture was transferred in 200 mL of half LB broth. The culture was shaken at 30 °C, 150 rpm for 7 days, and an aliquot of samples (2 mL) was collected at different time interval. One mL of sample was measured the cell growth by spectrophotometer at 625 nm (Thermo Fisher Scientific, Waltham, MA, USA). The remaining sample was centrifuged at 10,000× g, 4 °C for 30 min (Sigma-Aldrich Co., St. Louis, MO, USA), and the CFS was examined for the antimicrobial activity against all indicator strains by agar well diffusion assay. Three replicates of experiments were carried out, and the zone of inhibition was reported as mean ± SD.
# (§4) The colonies of indicator strains were inoculated in 9 mL of sterile 0.85% NaCl, and the cell suspensions were adjusted the turbidity comparably to 0.5 McFarland standard. They were swabbed onto the MH agar, and the wells were punched onto the agar using a pipette tip. One hundred µL of CSF or purified substance of WUL10 was loaded into each well, and the plates were incubated at 37 °C for 24 h. […] The experiments were performed in three independent experiments, and the inhibition zone was measured and reported as mean ± SD [21].
# [3] = tested on: MRSA isolate 142; assay: Agar well diffusion assay; type: cell-based, Staphylococcus aureus; settings: Table 1 experiment, mean ± SD, n = 3
# Protocol: as §3, §4
# [4] = tested on: S. aureus TISTR 517; assay: Agar well diffusion assay; type: cell-based, Staphylococcus aureus; settings: mean ± SD, n = 3
# Protocol: as §3, §4
# [5] = tested on: MRSA isolate 1096; assay: Agar well diffusion assay; type: cell-based, Staphylococcus aureus; settings: Table 1 experiment, mean ± SD, n = 3
# Protocol: as §3, §4
# [6] = tested on: MRSA isolate 2468; assay: microbe, parasite or virus in culture; type: cell-based, Staphylococcus aureus
# Protocol: as §1, §2
# [7] = tested on: MRSA isolate 142; assay: Broth microdilution MIC and MBC (CLSI); type: cell-based; settings: Staphylococcus aureus
# Protocol: as §1
# [8] = tested on: MRSA isolate 1096; assay: Broth microdilution MIC and MBC (CLSI); type: cell-based; settings: Staphylococcus aureus
# Protocol: as §1
# [9] = antibiotic 30 µg, Table 1 experiment
# [10] = antibiotic 30 µg, Table 4 experiment
# [11] = antibiotic 1 µg, Table 1 experiment
# [12] = broth microdilution, CAMHB, 37 °C 24 h, n = 3
compound,measurement,setting,value
CO[C@@]1(NC(=O)Cc2cccs2)C(=O)N2C(C(=O)O)=C(COC(N)=O)CS[C@@H]21 [Cefoxitin],MIC,"[1]; Staphylococcus aureus, TISTR517, broth microdilution, CAMHB, 37 °C 24 h, n = 3, read-out: MIC",2 µg/mL
same,Zone of Inhibition,[2]; [9],0.00 ± 0.00 mm
same,Zone of Inhibition,[3]; antibiotic 30 µg,0.00 ± 0.00 mm
same,Zone of Inhibition,[4]; [9],32.68 ± 0.15 mm
same,Zone of Inhibition,[4]; [10],32.77 ± 0.55 mm
same,Zone of Inhibition,[5]; antibiotic 30 µg,0.00 ± 0.00 mm
Cc1onc(-c2ccccc2)c1C(=O)N[C@@H]1C(=O)N2[C@@H]1SC(C)(C)[C@@H]2C(=O)O [Oxacillin],Zone of Inhibition,[2]; [11],0.00 ± 0.00 mm
same,Zone of Inhibition,[3]; antibiotic 1 µg,0.00 ± 0.00 mm
same,Zone of Inhibition,[4]; [11],29.29 ± 0.39 mm
same,Zone of Inhibition,[5]; antibiotic 1 µg,0.00 ± 0.00 mm
CN[C@H](CC(C)C)C(=O)N[C@H]1C(=O)N[C@@H](CC(N)=O)C(=O)N[C@H]2C(=O)N[C@H]3C(=O)N[C@H](C(=O)N[C@H](C(=O)O)c4cc(O)cc(O)c4-c4cc3ccc4O)[C@H](O)c3ccc(c(Cl)c3)Oc3cc2cc(c3O[C@@H]2O[C@H](CO)[C@@H](O)[C@H](O)[C@H]2O[C@H]2C[C@](C)(N)[C@H](O)[C@H](C)O2)Oc2ccc(cc2Cl)[C@H]1O [Vancomycin],MBC,[6]; Staphylococcus aureus,2 µg/mL
same,MIC,"[6]; Staphylococcus aureus, 24 h",2 µg/mL
same,MBC,"[1]; Staphylococcus aureus, TISTR517",2 µg/mL
same,MIC,"[1]; Staphylococcus aureus, TISTR517, 24 h",2 µg/mL
same,Zone of Inhibition,[2]; [10],26.75 ± 0.18 mm
same,MBC,[7],2 µg/mL
same,MIC,[7]; 24 h,2 µg/mL
same,MBC,[8],2 µg/mL
same,MIC,[8]; 24 h,2 µg/mL
KVLVKYLGGLLKLAALMV [synthetic peptide],MIC,[6]; [12],16 µg/mL
same,MIC,[1]; [12],16 µg/mL
